Patent US7189523B2, “Methods of identifying compounds that modulate IL-4 receptor-mediated IgE synthesis utilizing a B-cell associated protein” (Rigel Pharmaceuticals, Inc., priority 2002, dated 2007)

Experiments:
[1] = tested on: IL-4 induced germline ε transcription (ε promoter reporter) in naïve A5T4 cells; experiment: Re-infection (DNA transfer) assay in naïve A5T4 reporter cells; also used for the functional profile of the mutants; assay type: cell-based, human; settings: for functional category of the mutant compared to CL08wt: % change in reporter ratio calculated after subtracting 1.0 from the individual ratios; for Reporter Ratio: Table 2, CL08wt and mutants screened in the A5T4 reporter line
Experimental: The ability of peptide CL08wt (SEQ ID NO: 1) to inhibit germline ε transcription was confirmed in naïve cells. Briefly, Phoenix cells were transfected with a retroviral vector encoding a BFP-CL08wt peptide fusion as described in WO 99/58663 and WO 97/27213. Naïve A5T4 cells were infected with the resultant virions and grown for 3 days. The infected cells were stimulated with IL-4 (60 U/mL) and, after 3 days, the cells were assessed by FACS for BFP and GFP. […] The BFP fluorescence data corresponding to the BFP^+ and BFP^− populations are provided in Panel A. The GFP fluorescence data corresponding to the BFP^+ and BFP^− populations are presented in Panel B. The reporter ratio for this purpose is determined as the geometric mean of the GFP fluorescence of the BFP^− population divided by the geometric mean of the GFP fluorescence of the BFP^+ population. The reporter ratio for the CL08 in this re-infection assay was 1.39.
A collection of CL08 mutants was generated by replacing single or double amino acid residues in the sequence of CL08wt (SEQ ID NO: 1) with a different amino acid, typically an alanine, as described in copending application Ser. No. 10/095,659, entitled Methods of Identifying Protein Targets, filed Mar. 8, 2002. The functional profiles for the mutants derived from CL08wt (SEQ ID NO: 1) was obtained by constructing and screening for activity in the A5T4 reporter cell line in the manner described above. The activity of each mutant at the germline ε promoter is reflected in the reporter ratio, as described above. The reporter ratios were the functional values that were used to develop the functional profiles.
TABLE 2 depicts the amino acid sequences (the mutations are underlined) of the mutants tested and the measured reporter ratios when screening in the A5T4 reporter line.
Comparison of the interaction and functional profiles was performed by categorizing the mutants of CL08 based on the functional and interaction assays. Based on the reporter ratio, described in panel C of FIG. 5, each mutant was categorized into one of four functional categories: (1) reduction of function (ROF); (2) loss of function (LOF); (3) increase of function (IOF) or (4) functionally neutral (N), as compared to the activity of the wild type peptide, here CL08wt. As mentioned previously, cells expressing a peptide that inhibits germline ε transcription have reporter ratios of ≧1.1. Cells expressing a loss of function mutant have a reporter ratio of […]. […] Functionally neutral mutants have reporter ratios that fall within ±50% of that of the CL08wt (SEQ ID NO: 1) peptide. The % increase or decrease in reporter ratio is calculated after subtracting 1.0 from the individual ratios. […]

human BAP-37 (hBAP-37) = molecular target: T1, human BAP-37 (hBAP-37) (Homo sapiens, UniProt Q99623); experiment: β-galactosidase yeast two hybrid (YTH) interaction assay; assay type: binding; settings: peptide as bait
T1 construct: expressed in transfected cells; prey cDNA from a library of the A5T4 reporter line (BJAB human B-cells)
T1 sequence (Q99623 whole entry): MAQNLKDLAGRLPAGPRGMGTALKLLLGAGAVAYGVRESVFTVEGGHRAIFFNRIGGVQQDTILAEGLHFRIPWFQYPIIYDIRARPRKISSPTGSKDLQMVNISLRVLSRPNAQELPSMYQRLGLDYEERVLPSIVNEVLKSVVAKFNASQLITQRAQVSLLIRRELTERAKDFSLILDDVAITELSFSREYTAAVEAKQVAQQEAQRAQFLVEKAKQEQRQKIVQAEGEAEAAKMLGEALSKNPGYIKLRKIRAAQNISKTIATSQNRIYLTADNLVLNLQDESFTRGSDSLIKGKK
Experimental: Potential binding partners for peptide CL08wt (SEQ ID NO: 1) were identified in a β-galactosidase yeast two-hybrid (YTH) assay using peptide CL08wt (SEQ ID NO: 1) as bait and a cDNA library constructed from the A5T4 reporter cell line as prey. Binding was assessed by β-galactosidase quantification using BetaFluor (Novagen) as a substrate. A negative interaction control (no cDNA fused downstream of the GAL4 activation domain sequence) was also run. A general outline of the YTH assay is illustrated in FIG. 6A. Following clustering, filtering to remove non-specific bait hits (e.g., GFP and BFP), singletons and clusters recognized by 10 or more cDNA baits (based upon historical YTH assays), 7 prey clones were identified as hits.
Potential targets identified in the YTH assay were reconfirmed as generally outlined in FIG. 7. The cDNA clones identified as hits in the YTH assay were purified and rescreened for interaction with the CL08wt peptide in YTH assay. The hit clones were also screened in a control assay for interaction with the BFP using a vector (pGBKT7) that contained only the BFP and not the CL08wt peptide. At this stage, 7 putative target clones remained.
The interaction of CL08wt (SEQ ID NO: 1) peptide and its mutants with the clones identified as potential targets for the peptide CL08wt (SEQ ID NO: 1) was then quantified in a β-galactosidase YTH assay. The YTH assay was performed in the manner described above. A general outline of this YTH assay is illustrated in FIG. 6B. For each clone tested, an interaction profile was developed by comparing the β-galactosidase activity of each mutant to that of the wild type peptide, as described above.
The interaction of these N, IOF and ROF mutants with different polypeptides encoded by the putative target clones were quantified using the YTH assay described above. […]

[2] = tested on: IL-4 induced germline ε transcription (ε promoter reporter) in A5T4 reporter cells; experiment: A5T4 reporter line screening assay of library clones (HBEGF2a/GFP reporter, FACS); assay type: cell-based, human; settings: geometric mean GFP fluorescence, +IL-4/+Dox to +IL-4/−Dox populations; IL-4 60 U/mL, Dox 10 ng/ml; ≧1.1 = inhibition
Description: Peptide CL08wt (SEQ ID NO: 1) was identified by screening a retroviral library of random peptide 20-mers for the ability to inhibit IL-4 induced germline ε transcription using the HBEGF2a/[…] dual reporter phenotypic screening system described in WO 01/31232. To construct the random library, A5T4 reporter cells (described in more detail below) were infected with an infectious retroviral library of random peptide 20-mers (prepared as described in WO 97/27213; see also WO 01/34806 at page 39, line 36 through page 40, line 19). The retroviral vector used includes a gene encoding blue fluorescent protein (BFP) fused upstream of the region encoding the random peptide via a linker region encoding an α-helical peptide linker (expression fusion product is referred to as “BFP-peptide”). Expression of the BFP-peptide product is controlled by a promoter sensitive to the tetracycline-regulated transactivator such that expression of the BFP-peptide is regulated by tetracycline (Tet) or doxycycline (Dox). See U.S. patent application Ser. No. 10/096,339 entitled “Methods and Compositions for Screening for Alter Cellular Phenotypes”, filed on Mar. 8, 2002. […]

[3] = tested on: ST486 endogenous α promoter; experiment: TAQMAN assay of germline α transcription (selectivity); assay type: cell-based; settings: ST486 cells stimulated with TGF-β 40 ng/ml; average of 3 values; p=0.7371
Experimental: The assay was similar to that described in the immediately preceding section, except that ST486 cells (ATCC #CRL-1647) engineered to express the tetracycline-regulated transactivator were infected and the infected cells were stimulated with TGF-β (40 ng/ml; Peprotech). The primers and probe, which are specific for the transcription product driven by the ST486 endogenous α promoter, were as follows (the probe was labeled at the 5′-end with Fam and at the 3′-end with Tamra): […]

| Sequence | functional category of the mutant compared to CL08wt [1] | binding to human BAP-37 in yeast two hybrid interaction assay (human BAP-37 (hBAP-37)) | Reporter Ratio [1] | Reporter Ratio [2] | endogenous α inhibition ratio [3] |
| --- | --- | --- | --- | --- | --- |
| TGAAVELQINRSIMHYISSP (peptide encoded by synthetic oligomer) [CL08VH, double alanine mutant of CL08wt] | ROF (a reduction of function of mutant (ROF) shows a >50% decrease in reporter ratio) | bind |  |  |  |
| TGVHVAAQINRSIMHYISSP (peptide encoded by synthetic oligomer) [CL08EL, double alanine mutant of CL08wt] |  |  | 1.43 |  |  |
| TGVHVELQIAASIMHYISSP (peptide encoded by synthetic oligomer) [CL08NR, double alanine mutant of CL08wt] | IOF (An increase of function mutant (IOF) shows a >50% increase in reporter ratio) | bind |  |  |  |
| TGVHVELQINRSIMAAISSP (peptide encoded by synthetic oligomer) [CL08HY, double alanine mutant of CL08wt] |  |  | 1.54 |  |  |
| TGVHVELQINRSIMHYISSP (peptide encoded by synthetic oligomer) [CL08wt, 20-mer peptide from a random retroviral library, expressed as BFP-peptide fusion] |  | bind |  | 1.37 | 1.06 |
